Laboratory results taken from patent US9029387B2, “Benzonaphthyridinamines as autotaxin inhibitors” (Merck Patent GmbH, priority 2010, dated 2015).

Target: T1, recombinant autotaxin (Homo sapiens, UniProt Q13822)
T1 construct: made in house; host or cells: Hi5 insect cells (baculovirus)
Assay: Autotaxin test (enzyme test), Amplex Red fluorescence
Type: biochemical
Conditions: LPC 75 μM; for IC50: IC50 ranges, read-out: Autotaxin inhibition IC50; for % (ctrl 3E−5M): at 3E−5M
Protocol: The autotaxin activity is measured indirectly using Amplex Red reagent. Amplex Red is measured here as fluorogenic indicator for the H2O2 formed. In detail, autotaxin converts the substrate lysophosphatidylcholine (LPC) into phosphocholine and lysophosphatidylic acid (LPA). After this reaction, the phosphocholine is reacted with alkaline phosphatase to give inorganic phosphate and choline. In the next step, choline is oxidised by choline oxidase to give betaine, with formation of H2O2. H2O2 reacts with Amplex Red reagent in the presence of peroxidase (horseradish peroxidase) in a 1:1 stoichiometry and forms the highly fluorescent resorufin. The fluorescence is measured in a reaction-dependent kinetic mode in order that fluorescent signals from possible other fluorescent substances which are not involved in the reaction can be corrected out.
1.5 μl of a standard solution or of the test substances (compounds of the invention) in individual concentrations dissolved in 20 mM Hepes pH 7.2 with a maximum of 7.7% of DMSO are pre-incubated together with 10 μl (16 ng) of highly purified recombinant autotaxin in a black microtitre plate provided with 384 wells at 22° C. for 30 min. The reaction is then initiated by addition of 5 μl of L-α-lysophosphatidylcholine (LPC), where the final concentration of LPC is 75 μM. The mixture is incubated at 37° C. for 90 min. After the incubation, Amplex Red reagent, peroxidase (horseradish peroxidase) and choline oxidase is added, and the fluorescence is immediately measured at 612 nm with excitation of 485 nm in a “Tecan Ultra multimode” reader. The activity of autotaxin is calculated indirectly via detection of the H2O2 formed.
• Microtitre plate: PS microplate, 384 wells, small volume, black Corning, Cat#3677 • Protein: recombinant autotaxin (Baculovirale Hi5 Expression) • Substrate: L-a-lysophosphatidylcholine (chicken egg)); Avanti Polar Lipids #830071 P • Standard: C14 LPA, Avanti Polar Lipids, Cat#857120P • Detection reagent: Amplex Red reagent; Invitrogen #A12222; dissolved in 1.923 ml of DMSO peroxidase type VI-A (horseradish) from Sigma #P6782; dissolved in 7.45 ml of test buffer, choline oxidase; Sigma #C5896; dissolved in 2.47 ml of test buffer • Detection reagent mix: 1:100 dilution of Amplex Red Reagenzt in test buffer • Test buffer: 200 mM Tris HCl, Merck, Cat #1.08219, pH 7.9, 0.1% BSA, lipid-free, Roche Cat#775835 Pharmacological Data Autotaxin Inhibition

| IC50 | % (ctrl 3E−5M) | SMILES |
| --- | --- | --- |
| 100 to 1000 nM |  | COc1ccc(Cl)cc1NC(=O)CN1CCc2nc3ccccc3c(NC3CCN(C)CC3)c2C1 [Compound 1, N-(5-Chloro-2-methoxyphenyl)-2-[10-(1-methylpiperidin-4-ylamino)-3,4-dihydro-1H-benzo[b]-1,6-naphthyridin-2-yl]acetamide] |
| 100 to 1000 nM |  | COc1ccc(Cl)cc1NC(=O)CN1CCc2nc3ccccc3c(NCC(=O)N3CCCCC3)c2C1 [Compound 13, N-(5-Chloro-2-methoxyphenyl)-2-[10-(2-oxo-2-piperidin-1-ylethylamino)-3,4-dihydro-1H-benzo[b]-1,6-naphthyridin-2-yl]acetamide] |
| > 1000 nM |  | COc1ccc(Cl)cc1NC(=O)COC(=O)N1CCc2nc3ccccc3c(NCCO)c2C1 [Compound 7, 10-(2-Hydroxyethylamino)-3,4-dihydro-1H-benzo[b]-1,6-naphthyridine-2-carboxylic acid (5-chloro-2-methoxy-phenylcarbamoyl)methyl ester] |
| > 1000 nM |  | COc1ccc(Nc2c3c(nc4ccccc24)CCN(CC(=O)Nc2cc(Cl)ccc2OC)C3)cc1 [Compound 24, N-(5-Chloro-2-methoxyphenyl)-2-[10-(4-methoxy-phenylamino)-3,4-dihydro-1H-benzo[b]-1,6-naphthyridin-2-yl]acetamide] |
| 100 to 1000 nM |  | CNC(=O)CNc1c2c(nc3ccccc13)CCN(CC(=O)Nc1cc(Cl)ccc1OC)C2 [Compound 8, N-(5-Chloro-2-methoxyphenyl)-2-[10-(methyl-carbamoylmethylamino)-3,4-dihydro-1H-benzo[b]-1,6-naphthyridin-2-yl]acetamide] |
| > 1000 nM |  | COc1ccc(Cl)cc1NC(=O)CN1CCc2nc3ccccc3c(N)c2C1 [Compound 2, 2-(10-Amino-3,4-dihydro-1H-benzo[b]-1,6-naphthyridin-2-yl)-N-(5-chloro-2-methoxyphenyl)acetamide] |
|  | −9% | COc1ccc(Cl)cc1NC(=O)COC(=O)N1CCc2nc3ccccc3c(NCCN(C)C)c2C1 [Compound 6, 10-(2-Dimethylaminoethylamino)-3,4-dihydro-1H-benzo[b]-1,6-naphthyridine-2-carboxylic acid (5-chloro-2-methoxyphenylcarbamoyl)methyl ester] |
| 100 to 1000 nM |  | COc1ccc(Cl)cc1NC(=O)CN1CCc2nc3ccccc3c(NCC(=O)N3CCOCC3)c2C1 [Compound 14, N-(5-Chloro-2-methoxyphenyl)-2-[10-(2-morpholin-4-yl-2-oxoethylamino)-3,4-dihydro-1H-benzo[b]-1,6-naphthyridin-2-yl]acetamide] |
| 100 to 1000 nM |  | COc1ccc(Cl)cc1NC(=O)CN1CCc2nc3ccccc3c(NCC(=O)N3CCN(C(C)C)CC3)c2C1 [Compound 17, N-(5-Chloro-2-methoxyphenyl)-2-{10-[2-(4-isopropyl-piperazin-1-yl)-2-oxoethylamino]-3,4-dihydro-1H-benzo-[b]-1,6-naphthyridin-2-yl}acetamide] |
| 100 to 1000 nM |  | COc1ccc(Cl)cc1NC(=O)CN1CCc2nc3ccccc3c(NCC(=O)N(C)C)c2C1 [Compound 9, N-(5-Chloro-2-methoxyphenyl)-2-[10-(dimethyl-carbamoylmethylamino)-3,4-dihydro-1H-benzo[b]-1,6-naphthyridin-2-yl]acetamide] |
| > 1000 nM |  | COc1ccc(Cl)cc1NC(=O)CN1CCc2nc3ccccc3c(Nc3ccccc3)c2C1 [Compound 22, N-(5-Chloro-2-methoxyphenyl)-2-(10-phenylamino-3,4-dihydro-1H-benzo[b]-1,6-naphthyridin-2-yl)acetamide] |
| > 1000 nM |  | COc1ccc(Cl)cc1NC(=O)CN1CCc2nc3ccccc3c(Nc3cccnc3)c2C1 [Compound 21, N-(5-Chloro-2-methoxyphenyl)-2-[10-(pyridin-3-ylamino)-3,4-dihydro-1H-benzo[b]-1,6-naphthyridin-2-yl]acetamide] |
| 100 to 1000 nM |  | COc1ccc(Cl)cc1NC(=O)CN1CCc2nc3ccccc3c(NCC(=O)N3CCCC3)c2C1 [Compound 12, N-(5-Chloro-2-methoxyphenyl)-2-[10-(2-oxo-2-pyrrolidin-1-ylethylamino)-3,4-dihydro-1H-benzo[b]-1,6-naphthyridin-2-yl]acetamide] |
| > 1000 nM |  | COc1ccc(Cl)cc1NC(=O)CN1CCc2nc3ccccc3c(NCc3nc4ccccc4[nH]3)c2C1 [Compound 11, 2-{10-[(1H-Benzimidazol-2-ylmethyl)amino]-3,4-dihydro-1H-benzo[b]-1,6-naphthyridin-2-yl}-N-(5-chloro-2-methoxyphenyl)acetamide] |
| > 1000 nM |  | COc1ccc(Cl)cc1NC(=O)CN1CCc2nc3ccccc3c(NCC(=O)NC3CCCCC3)c2C1 [Compound 15, N-(5-Chloro-2-methoxyphenyl)-2-[10-(cyclohexyl-carbamoylmethylamino)-3,4-dihydro-1H-benzo[b]-1,6-naphthyridin-2-yl]acetamide] |
| > 1000 nM |  | COc1ccc(Cl)cc1NC(=O)CN1CCc2nc3ccccc3c(Nc3ccncc3)c2C1 [Compound 20, N-(5-Chloro-2-methoxyphenyl)-2-[10-(pyridin-4-ylamino)-3,4-dihydro-1H-benzo[b]-1,6-naphthyridin-2-yl]acetamide] |
| 100 to 1000 nM |  | CCN(CC)C(=O)CNc1c2c(nc3ccccc13)CCN(CC(=O)Nc1cc(Cl)ccc1OC)C2 [Compound 18, N-(5-Chloro-2-methoxyphenyl)-2-[10-(diethyl-carbamoylmethylamino)-3,4-dihydro-1H-benzo[b]-1,6-naphthyridin-2-yl]acetamide] |
| 100 to 1000 nM |  | COc1ccc(Cl)cc1NC(=O)CN1CCc2nc3ccccc3c(NCCN(C)C)c2C1 [Compound 5, N-(5-Chloro-2-methoxyphenyl)-2-[10-(2-dimethylamino-ethylamino)-3,4-dihydro-1H-benzo[b]-1,6-naphthyridin-2-yl]acetamide] |
| > 1000 nM |  | COc1ccc(Cl)cc1NC(=O)CN1CCc2nc3ccccc3c(Nc3ccccn3)c2C1 [Compound 23, N-(5-Chloro-2-methoxyphenyl)-2-[10-(pyridin-2-ylamino)-3,4-dihydro-1H-benzo[b]-1,6-naphthyridin-2-yl]acetamide] |
| 100 to 1000 nM |  | COc1ccc(Cl)cc1NC(=O)CN1CCc2nc3ccccc3c(NCCO)c2C1 [Compound 4, N-(5-Chloro-2-methoxyphenyl)-2-[10-(2-hydroxy-ethylamino)-3,4-dihydro-1H-benzo[b]-1,6-naphthyridin-2-yl]acetamide] |
| 100 to 1000 nM |  | COc1ccc(Cl)cc1NC(=O)CN1CCc2nc3ccccc3c(N3CCN(CCO)CC3)c2C1 [Compound 10, N-(5-Chloro-2-methoxyphenyl)-2-{10-[4-(2-hydroxyethyl)-piperazin-1-yl]-3,4-dihydro-1H-benzo[b]-1,6-naphthyridin-2-yl}acetamide] |
| 100 to 1000 nM |  | COc1ccc(Cl)cc1NC(=O)CN1CCc2nc3ccccc3c(NCC(=O)N3CCN(Cc4ccccc4)CC3)c2C1 [Compound 19, 2-{10-[2-(4-Benzylpiperazin-1-yl)-2-oxoethylamino]-3,4-dihydro-1H-benzo[b]-1,6-naphthyridin-2-yl}-N-(5-chloro-2-methoxyphenyl)acetamide] |
|  | 79% | Nc1c2c(nc3ccccc13)CCN(CC(=O)Nc1cc(Cl)ccc1Cl)C2 [Compound 3, 2-(10-Amino-3,4-dihydro-1H-benzo[b]-1,6-naphthyridin-2-yl)-N-(2,5-dichlorophenyl)acetamide] |
| 100 to 1000 nM |  | COc1ccc(Cl)cc1NC(=O)CN1CCc2nc3ccccc3c(NCC(=O)N3CCN(C)CC3)c2C1 [Compound 16, N-(5-Chloro-2-methoxyphenyl)-2-{10-[2-(4-methyl-piperazin-1-yl)-2-oxoethylamino]-3,4-dihydro-1H-benzo-[b]-1,6-naphthyridin-2-yl}acetamide] |
